Measured values reported in patent US12478602B2, “Method for treating a disorder” (priority 2023, dated 2025).

Tests used:
[1] = test system: mice having autism spectrum disorder; assay: Individual recognition (novel object recognition, NOR) experiment; type: in vivo, mouse; conditions: 180, 300, 480 or 600 mg/kg/day orally for 21 days; with increasing dosage
Protocol: Mice having autism spectrum disorder were created by the same method as in Example 1.1. The 3-week-old male mice having autism spectrum disorder were orally injected with 180, 300, 480, or 600 mg/kg/day of L-serine for 21 days and then subjected to an individual recognition test. Eight mice were used for each experimental group. Mice tend to be more interested in a novel object than a familiar object. Therefore, a novel object recognition (NOR) experiment, which is an experiment for checking whether or not mice recognize a novel object, was carried out.

[2] = test system: mice having autism spectrum disorder; assay: Anxiety experiment (elevated plus maze) in mouse model of autism spectrum disorder; type: in vivo; conditions: 500 mg/kg orally once a day for 2 weeks; vs untreated autism spectrum disorder mouse
Description: (§1) Pregnant C57BL/6 mice were subcutaneously injected with valproic acid (VPA) at the time when the gestation period reached 12 days. Male mice were selected from the mice that were born from the pregnant mice that were subcutaneously injected with VPA, and these were used as animals for a mouse model of autism spectrum disorder.
(§2) Since 3-week-old mice are at the critical stage, 3-week-old normal mice and 3-week-old mice having autism spectrum disorder were subjected to a sociality experiment, a social cognition experiment, and an anxiety experiment to identify the underlying features. 500 mg/kg of L-serine (hereinafter, referred to as AST-001) was orally administered for 2 weeks to mice having autism spectrum disorder, in which the underlying features had been confirmed. The mice having autism spectrum disorder, to which AST-001 had been orally administered for 2 weeks, were again subjected to a sociality experiment, a social cognition experiment, and an anxiety experiment.
For 2 weeks from the age of 3 weeks, the normal group and the autism spectrum disorder group were subjected to oral administration with water every day once a day, and in the drug group, mice having autism spectrum disorder were orally administered with 500 mg/kg of AST-001 (dissolved in water) once a day. […]

mPFC pyramidal neurons = assay: Patch clamp of intrinsic excitability in BTBR mice; type: in vivo, mouse; conditions: 500 mg/kg orally for 2 weeks
Protocol: BTBR T+tf/J (BTBR), which is an animal of autism spectrum disorder, and C57BL/6 mice (used as a control group) were purchased from Jackson Laboratories. […] However, in a case where BTBR mice were orally administered with 500 mg/kg of AST-001 for 2 weeks, and then the firing rate of the action potential was measured, the firing rate of the action potential in the BTBR mice and the control group mice turned out to be similar (see FIG. 5B).

[3] = test system: children having autism spectrum disorder; assay: Phase 2 clinical trial, effectiveness; type: in vivo, human; conditions: high-dose short-term administration group, 24 weeks vs 12 weeks
Protocol: 151 children having autism spectrum disorder were subjected to a multicentered, randomly assigned, double-blinded, placebo-controlled, and therapeutically exploratory phase 2 clinical trial for exploring the effectiveness and evaluating the safety of an AST-001 syrup. An AST-001 syrup used in a clinical trial is a colorless or pale yellow clear syrup which is aromatic and has sweetness, and it comprises, as a main ingredient, 10 g of L-serine in about 100 mL of this drug and is packaged in aluminum foil at a dosage of 2 g/20 mL. The composition of the AST-001 syrup is such that the AST-001 syrup comprises L-serine as a main ingredient, sodium carboxymethyl cellulose as a thickener, methyl paraoxybenzoate and propyl paraoxybenzoate as preservatives, a citric acid hydrate and a potassium citrate hydrate as pH adjusting agents, white sugar and a D-sorbitol solution as sweetening agents, an apple mint flavor SJ-G (22005221) as a fragrance imparting agent, and purified water. […] After the extension study period of 12 weeks ended, the effectiveness and adverse events in patients were followed up and monitored for 12 weeks (that is, follow-up period). […] The K-VABS-II Adaptive Behavior Composite (K-VABS-II ABC) score, which is a primary evaluation variable, is a calculated score (standard score) for the main domain, where the higher score means the higher level of adaptive behavior.

[4] = test system: mice having autism spectrum disorder; assay: Social cognition experiment in mouse model of autism spectrum disorder; type: in vivo; conditions: 500 mg/kg orally once a day for 2 weeks from age 3 weeks
Description: as §1, §2
A social cognition experiment, which measures whether or not an experimental mouse moves in the direction of a non-familiar mouse in a case where the experimental mouse is placed between a non-familiar mouse and a familiar mouse, was carried out (see FIG. 1B). […]

N[C@@H](CO)C(=O)O [AST-001, L-serine]
discrimination index (DI) [1]: increased | time staying in the closed-arm space of the elevated plus maze [2]: short time | time staying in the open-arm space of the elevated plus maze [2]: remarkably long time | firing rate of the action potential, BTBR mice vs control group mice (mPFC pyramidal neurons): similar | amount of score change in the K-VABS-II ABC and the main domain, 2DC and CGI-S [3]: significantly improves | interaction time with the non-familiar mouse vs interaction time with the familiar mouse [4]: significantly higher | preference index for the non-familiar mouse [4]: high
